US20240000949A1, “Nucleic Acid-Derivatized Therapeutics” (The University of Chicago, priority 2020, published 2024)
{Alexa647} = Alexa Fluor 647 dye

B1: dsDNA: 38-mer double stranded DNA, SEQ ID NO: 40 and SEQ ID NO: 41, Alexa 647 labelled; targeting module without drug (nucleic acid)
chain 1: ATCAACACTGCACACCAGACAGCAAGATCCTATATATA
chain 2: TATATATAGGATCTTGCTGTCTGGTGTGCAGTGTTGAT
modifications: listed as DNA, chemistry not fully specified
notes: targeting module without drug

How the values were obtained:
[1] = tested on: Lactate dehydrogenase (LDH) in BMDMs; test: LDH activity and lactate in BMDMs under hypoxia; type: cell-based, mouse; conditions: hypoxic (1% 02), 24h, vs vehicle
Protocol: FIG. 82. […] Bone marrow-derived macrophages (BMDMs) were cultured under normoxic (n) or hypoxic (h, 1% 02) conditions for 24h in the presence of vehicle (veh), GNE, or GNE-DNA.
FIG. 83. […] Bone marrow-derived macrophages (BMDMs) were cultured under normoxic (n) or hypoxic (h, 1% 02) conditions for 24h in the presence of vehicle (veh), GNE, or GNE-DNA. Intracellular lactate levels in BMDMs are decreased by GNE or GNE-DNA under hypoxic conditions to levels compared to vehicle.
BMDMs were differentiated from bone marrow stem cells with L-cell conditioned media for six days as previously described (Kratz et al.).

tumor growth = conditions: 1 mg, daily; cited from earlier work
[2] = tested on: TAMs isolated from E0771 tumors; test: DQ-OVA degradation by TAMs treated ex vivo; type: cell-based, mouse; conditions: 100 nM, 2h ex vivo
Protocol: FIGS. 46A-46B. A lysosome-targeted DNA nanodevice (E64-DNA) promotes antigen cross-presentation by TAMs. FIG. 43A, Representative images (left) and Pearson correlation (right) of co-localization of TMR-Dextran labeled lysosomes (green) with E64-DNA (red). Pearson correlation with and without a 20-pixel shift (˜lysosome diameter) of the green signal. n=15 cells/group. scale bar=[…]. FIG. 43B, DQ-OVA degradation by TAMs treated with E64-DNA, DNA, or E64 (100 nM) for 2h. n=3/group. Statistical significance was calculated via two-tailed Student's t-test (p<0.05 values are provided); error bars indicate the mean of independent experiments±s.e.m. ns; not significant. TAMs were isolated from E0771 tumors. All measurements (n) are biological replicates.
Analysis of lysosomal degradation by DQ-OVA. Lysosomal degradative capacity of macrophages was assessed by a DQ-OVA degradation assay (D-12053, Invitrogen®) according to the manufacturer's instruction. Briefly, 0.2 million cells were incubated with 10 μg/mL of DQ-OVA at room temperature for 15 min, washed, and incubated at 37° C. for another 15 min. DQ-OVA fluorescence was quantified by flow cytometry.

TAMs / OT-1 CD8+ T cells = test: MHCI-restricted antigen cross-presentation by TAMs (OVA-OT-1 CD8+ T cell system); type: cell-based, mouse; conditions: 100 nM, alone
Protocol: OT-1 CD8^+ T-cell activation (FIG. 53B) and proliferation (FIG. 53C) after 72h of co-culture with TAMs. n=3/group. Vehicle (Veh)=phosphate-buffered saline. Statistical significance was calculated via two-tailed Student's t-test (p<0.05 values are provided); error bars indicate the mean of independent experiments±s.e.m. ns; not significant. TAMs were isolated from E0771 tumors. All measurements (n) are biological replicates.
CD3/CD28 antibodies were included as a positive control for T cell activation. n=3/group. Statistical significance was calculated via two-tailed Student's t-test (p<0.05 values are provided); error bars indicate the mean of independent experiments±s.e.m. All measurements (n) are biological replicates. […]
T cell activation—CD8^+ or CD4^+ T cells were treated with BD GolgiPlug for the final 6 h of coculture with macrophages to allow intracellular IFNγ accumulation. […] The percent of IFNγ^+/CD44^+CD8^+ T cells was quantified by flow cytometry. In some cases, CD8^+ T cell IFNγ production in the culture medium at 72h was quantified using a mouse IFN-γ ELISA kit (Invitrogen).
T cell proliferation—Isolated CD4^+ or CD8^+ T cells were labeled with 5 μM 5,6-carboxyfluorescein diacetate succinimidyl ester (CF SE, Invitrogen) according to the manufacturer's instructions. The number of proliferating cells (CF SE-diluted) was quantified using CountBright™ beads (Invitrogen). […]

M2 BMDMs = test: Uptake by M2 BMDMs in vitro (wt and scavenger receptor knockouts; nucleic acid variants); type: cell-based, mouse; conditions: 30 min
Protocol: FIG. 48. A lysosome-targeted DNA nanodevice (E64-DNA) promotes antigen cross-presentation by TAMs. E64-DNA uptake by M2 BMDMs from wt, Scarb1−/−, Msr1−/−, or Cd36−/− mice. Uptake was quantified by flow cytometry; n=3/group. Statistical significance was calculated via two-tailed Student's t-test (p<0.05 values are provided); error bars indicate the mean of independent experiments±s.e.m. ns; not significant. TAMs were isolated from E0771 tumors. All measurements (n) are biological replicates.
FIGS. 49A-49B. DNA nanodevice uptake and stability. FIG. 49A, Schematic of various fluorescently labeled nucleic acid structures used for uptake studies in BMDMs. Each nucleic acid scaffold is either a single stranded or double stranded 38 mer DNA or RNA sequence. Each scaffold is labelled with an Alexa Fluor® 647 fluorophore on the 5′ end of one of the strands. FIG. 49B, Uptake of various types of nucleic acids by M2 BMDMs. n=3/group. Statistical significance was calculated via two-tailed Student's t-test (p<0.05 values are provided); error bars indicate the mean of independent experiments±s.e.m. ns; not significant. […]
E64-DNA uptake by M2 BMDMs in vitro—E64-DNA (100 nM) or other types of nucleic acids (D1-D2, D2, R1-R2, R2) was incubated with 0.2 million M2-activated BMDMs from wt, Scarb1−/−, Msr1−/−, or Cd36−/− mice for 30 min, washed with PBS, and uptake was assessed by flow cytometry.

BMDMs = test: Uptake of fluorescently labelled nucleic acid scaffolds by BMDMs (flow cytometry); type: cell-based, mouse; conditions: pulsed with 50 nM scaffold 30 min, chased 15 min
From the text: FIGS. 1A-1B. Uptake of various oligonucleotides by bone marrow-derived macrophages (BMDMs). FIG. 1A, Schematic of various fluorescently labelled nucleic acid structures used for uptake studies in BMDMs. Each nucleic acid scaffold is either a single stranded or double stranded 38 mer DNA (D) or RNA (R) sequence, or a DNA:RNA hybrid or complex. Each scaffold is labelled with an Alexa Fluor® 647N fluorophore on the 5′ end of one of the strands. From left to right, the constructions tested were dsDNA (SEQ ID NO: 40 and SEQ ID NO: 41 or SEQ ID NO: 42), ssDNA (SEQ ID NO: 41), dsRNA (SEQ ID NO: 43 and SEQ ID NO: 44), ssRNA (SEQ ID NO: 43), and ssDNA:ssRNA (SEQ ID NO: 45 and SEQ ID NO: 46). FIG. 1B, BMDMs were pulsed with 100 nM of each nucleic acid scaffold for 30 min. The cells were then washed and chased for 15 min after which were subjected to flow cytometry based quantification. Mean fluorescence intensity (A/IFI) of nucleic acid scaffold uptake by BMDMs is shown.
Various fluorescently labelled scaffolds were tested in a variety of nucleic acid configurations (Table 1).
BMDMs were pulsed with 50 nM of each nucleic acid scaffold for 30 min. The cells were then washed and chased for 15 min after which they were subjected to flow cytometry quantification. A nucleic acid scaffold was then selected for subsequent experiments. […]

E0771 tumors = test: E0771 tumor growth after i.v. delivery (incl. antibody depletion, anti-PD-L1 and CTX combinations); type: in vivo, mouse; conditions: E64-DNA 25 μg i.v., CTX 50 mg/kg
Protocol: E64-DNA or DNA (25 μg) was intravenously delivered (i.v.; retro-orbital) into E0771 tumor-bearing mice. E0771 tumor growth over 5 days after a single injection is shown. n=8/group. Statistical significance was calculated via two-tailed Student's t-test (p<0.05 values are provided); error bars indicate the mean of independent experiments±s.e.m. ns, not significant. All measurements (n) are biological replicates.
Experimental design for depleting TAMs with α-CSF1R antibody (top). Effect of IgG or α-CSF1R (300 μg) on E0771 tumor growth (bottom, left) and CD8^+ effector T cells in tumors (bottom, right) in mice treated with E64-DNA (n=8/group) or DNA (n=6/group). E64-DNA or DNA (25 μg) was intravenously delivered (i.v.; retro-orbital) into E0771 tumor-bearing mice.
Effects of α-CD8, α-PD-L1, or IgG antibodies on E0771 tumor growth in mice treated with E64-DNA or DNA. […]
E64-DNA or DNA (25 μg) was intravenously delivered (i.v.; retro-orbital) into E0771 tumor-bearing mice. […] Statistical significance was calculated via two-tailed Student's t-test (p<0.05 values are provided); error bars indicate the mean of independent experiments±s.e.m. ns, not significant. […]

alveolar macrophages = test: In vivo labeling by intratracheal dsDNA; parameters: species or system mouse; conditions: 100 μg dsDNA intratracheally
Protocol: (§1) FIGS. 2A-2B. dsDNA preferentially targets macrophages in other tissues. FIG. 2A, Fluorescently labeled dsDNA (100 μg) was injected intratracheally into mice and cells were harvested 2 hr post injection with a bronchoalveolar lavage. Uptake by alveolar macrophages (AM, CD45^+CD11b^−CD11c^+) and alveolar neutrophils (AN, CD45^+CD11b^+Ly6G^+) was quantified by flow cytometry. FIG. 2B, Fluorescently labeled dsDNA (100 μg) was injected intraperitoneally into mice and visceral adipose tissue was harvested 4 hr post injection. Adipose tissue was digested to obtain the stromal vascular fraction. dsDNA uptake by cells in the stromal vascular fraction was quantified by flow cytometry. ATM=adipose tissue macrophage (CD45^+CD11b^+F4/80^+).
(§2) BMDMs were pulsed with 50 nM of each nucleic acid scaffold for 30 min. The cells were then washed and chased for 15 min after which they were subjected to flow cytometry quantification. A nucleic acid scaffold was then selected for subsequent experiments. To test the efficiency of macrophage labeling in vivo, 25 μg of fluorophore labeled dsDNA was injected intravenously into a mouse model of triple-negative breast cancer (TNBC).

[3] = tested on: adipose tissue macrophages; test: In vivo labeling by intraperitoneal dsDNA; parameters: species or system mouse; conditions: 100 μg dsDNA intraperitoneally
Protocol: as §1, §2

[4] = tested on: tumor associated macrophages; test: In vivo macrophage labeling by i.v. fluorophore labeled dsDNA, TNBC model; conditions: 25 μg dsDNA i.v., TNBC mouse model
Protocol: as §2

Molecule	DQ-OVA degradation by TAMs [2]	antigen cross-presentation by TAMs (TAMs / OT-1 CD8+ T cells)	internalization of 38 nucleotide Alexa 647 scaffolds by M2 BMDMs (M2 BMDMs)	uptake of nucleic acid scaffold by BMDMs (BMDMs)	also measured
O=C1N[C@](c2ccc(N3CCOCC3)cc2)(c2ccsc2)CC(O)=C1Sc1ccccc1Cl [GNE, (R)-GNE-140]					Lactate dehydrogenase (LDH) activity in BMDMs [1]: decreased; intracellular lactate levels in BMDMs [1]: decreased
CC(C)C[C@H](NC(=O)[C@@H]1O[C@H]1C(=O)O)C(=O)NCCCCNC(=N)N [E64, reference compound]	could not be reproduced	did not affect cross-presentation			tumor growth, free E64 high doses (tumor growth): limited impact on tumor growth
ssDNA: single stranded 38 mer DNA, SEQ ID NO: 41, Alexa 647 labelled (TATATATAGGATCTTGCTGTCTGGTGTGCAGTGTTGAT; DNA, 5' {Alexa647}, backbone and methylation of C not given here)			required a ssDNA or dsDNA scaffold	maximal uptake	
O=P1(N(CCCl)CCCl)NCCCO1 (stereo not drawn) [CTX, cyclophosphamide]					sustained tumor regression in the E0771 model (E0771 tumors): could not be replicated
B1	could not be reproduced	did not affect cross-presentation	required a ssDNA or dsDNA scaffold	maximal uptake	labeling of alveolar macrophages preferentially over other cell types (alveolar macrophages): > 95%; labeling of adipose tissue macrophages preferentially over other cell types [3]: 70%; labeling of tumor associated macrophages preferentially over any other cell type in the tumor microenvironment [4]: > 90%
